Laboratory results reported in US5959130A, “Castor based benzoate esters” (Finetex, Inc., priority 1997, dated 1999).

Tests used:
[1] = physical properties of benzoate esters compared to precursors, Table II; format: physicochemical; settings: for VISCOSITY: Brookfield Viscometer, Spindle # 1, 10 rpm
Text: Absence of odor is an important factor in consumer acceptance of cosmetic and toiletry products.

[2] = in specific ratios
Text: The aforedescribed benzoate esters have unique properties that make them particularly suited for use as emollient carriers for cosmetic ingredients. […] Parsol® is a registered trademark of Givaudan Corp. of Clifon, N.J.

[3] = Hagman readings (particle size), titanium dioxide dispersion, Table VI A; format: physicochemical; settings: for Hagman reading (particle size): TiO2 50%
Description: (§1) The novel benzoate esters of the invention were tested for pigment and dye dispersing efficacy. Color pastes were prepared by dispersing dry pigment into the oil phase while hand stirring and then passing each mixture through a three roll mill six times, collecting a 16 oz. sample after each pass. The samples collected were subjected to particle size measurements.

[4] = viscosity readings of Red No. 21 dispersions, Table VI B; format: physicochemical; settings: for Viscosity reading of dispersion: Brookfield LVT-D @ 12 RPM, Red No. 21 35%
[5] = sunscreen solubility: PARSOL 1789, Table IV B; format: physicochemical
Text: (§2) These two sunscreens are difficult to dissolve and keep in solution for use in sunscreen formulations for optimal SPF (sun-protection factors). Higher solvency for a sunscreen ingredient is desirable as it allows higher concentrations of the sunscreen active ingredient in a formulation. This advantageously raises the SPF ratings for the formulation. The liquid organic sunscreens that are commonly used are octyl-methoxy cinnamate (OMC) and octyl salicylate (OS).
(§3) Solubility/Solvency Tables IVA and IVB show the solubility and concentrations of the sunscreen ingredient in the novel esters of the invention compared to their precursor raw materials (non-benzoate esters).

[6] = Hagman readings (particle size), Red No. 21 dispersion, Table VI A; format: physicochemical; settings: Red No. 21 35%
Description: as §1

[7] = Hagman readings (particle size), Red No. 6 Barium Lake dispersion, Table VI A; format: physicochemical; settings: Red No. 6 Barium Lake 35%
Description: as §1

[8] = organoleptic evaluation of tactile characteristics on the forearm, Table VII; format: in vivo, individuals; settings: rating, 1 = Worst 5 = Best
Description: The tactile characteristics of the novel benzoate esters of the invention were determined by applying the appropriate material, neat or as a dilution with another emollient ester, lanolin or […]. The properties were evaluated organoleptically after application to the interior surface of the forearm.

[9] = viscosity readings of titanium dioxide dispersions, Table VI B; format: physicochemical; settings: for Viscosity reading of dispersion: Brookfield LVT-D @ 12 RPM, TiO2 50%
[10] = sunscreen solubility: Benzophenone-3, Table IV A; format: physicochemical
Text: as §2, §3

[11] = Gardnor scale
[12] = 23° C., 10 gms sunscreen in 100 gms mixture
[13] = 30° C., 10 gms sunscreen in 100 gms mixture
[14] = 30° C., 15 gms sunscreen in 100 gms mixture
[15] = 23° C., 15 gms sunscreen in 100 gms mixture

CCCCCCC(CC=CCCCCCCCC(=O)OCC(COC(=O)CCCCCCCC=CCC(CCCCCC)OC(=O)c1ccccc1)OC(=O)CCCCCCCC=CCC(CCCCCC)OC(=O)c1ccccc1)OC(=O)c1ccccc1 (stereo not drawn) [BCO, Benzoic acid ester of glyceryl tri-ricinoleate]
S.G. (specific gravity) ([1]; 25° C.): 0.982 | VISCOSITY [1]: 937 cps | miscibility with Parsol 1789 [2]: miscible | miscibility with benzophenone-3 [2]: miscible | Hagman reading (particle size) ([3]; pass 1): ≤ 30 μm | Hagman reading (particle size) ([3]; pass 2): ≤ 26 μm | Hagman reading (particle size) ([3]; pass 3): ≤ 20 μm | Hagman reading (particle size) ([3]; pass 4): ≤ 10 μm | Hagman reading (particle size) ([3]; pass 5): ≤ 10 μm | Hagman reading (particle size) ([3]; pass 6): ≤ 8 μm | Viscosity reading of dispersion ([4]; pass 1): > 15,600 cps | Viscosity reading of dispersion ([4]; pass 2): > 15,600 cps | Viscosity reading of dispersion ([4]; pass 3): > 15,600 cps | Viscosity reading of dispersion ([4]; pass 4): > 15,600 cps | Viscosity reading of dispersion ([4]; pass 5): > 15,600 cps | Viscosity reading of dispersion ([4]; pass 6): > 15,600 cps | Sunscreen solubility (Parsol 1789) [5, 12]: + | Sunscreen solubility (Parsol 1789) ([5]; 30° C., 5 gms sunscreen in 100 gms mixture): + | Sunscreen solubility (Parsol 1789) [5, 13]: + | Sunscreen solubility (Parsol 1789) [5, 14]: + | Hagman reading (particle size) ([6]; pass 1): ≤ 39 μm | Hagman reading (particle size) ([6]; pass 2): ≤ 30 μm | Hagman reading (particle size) ([6]; pass 3): ≤ 26 μm | Hagman reading (particle size) ([6]; pass 4): ≤ 14 μm | Hagman reading (particle size) ([6]; pass 5): ≤ 12 μm | Hagman reading (particle size) ([6]; pass 6): ≤ 10 μm | Hagman reading (particle size) ([7]; pass 1): ≤ 49 μm | Hagman reading (particle size) ([7]; pass 2): ≤ 45 μm | Hagman reading (particle size) ([7]; pass 3): ≤ 42 μm | Hagman reading (particle size) ([7]; pass 4): ≤ 40 μm | Hagman reading (particle size) ([7]; pass 5): ≤ 36 μm | Hagman reading (particle size) ([7]; pass 6): ≤ 33 μm | GREASINESS/OILINESS [8]: 4 | OVERALL TACTILITY [8]: 3 | SPREADABILITY [8]: 4 | TACK [8]: 2 | viscosity of TiO2 dispersions (in words) [9]: much lower viscosity | Viscosity reading of dispersion ([9]; pass 1): 6552 cps | Viscosity reading of dispersion ([9]; pass 2): 7176 cps | Viscosity reading of dispersion ([9]; pass 3): 7800 cps | Viscosity reading of dispersion ([9]; pass 4): 7332 cps | Viscosity reading of dispersion ([9]; pass 5): 7176 cps | Viscosity reading of dispersion ([9]; pass 6): 6786 cps | Sunscreen solubility (Benzophenone-3) [10, 12]: + | Sunscreen solubility (Benzophenone-3) [10, 15]: + | Sunscreen solubility (Benzophenone-3) [10, 13]: + | Sunscreen solubility (Benzophenone-3) [10, 14]: +

CCCCCCCCCCCCCCCCOC(=O)CCCCCCCC=CCC(CCCCCC)OC(=O)c1ccccc1 (stereo not drawn) [BCR, benzoic acid ester of cetyl-ricinoleate]
S.G. (specific gravity) ([1]; 25° C.): 0.915 | VISCOSITY [1]: 80 cps | Hagman reading (particle size) ([3]; pass 1): ≤ 30 μm | Hagman reading (particle size) ([3]; pass 2): ≤ 30 μm | Hagman reading (particle size) ([3]; pass 3): ≤ 21 μm | Hagman reading (particle size) ([3]; pass 4): ≤ 18 μm | Hagman reading (particle size) ([3]; pass 5): ≤ 10 μm | Hagman reading (particle size) ([3]; pass 6): ≤ 10 μm | particle size reduction vs precursor CR (in words) ([3]; third pass and onwards): better reduction of particle size | viscosity of Red No. 21 dispersion (in words) [4]: excellent low viscosity dispersion | Viscosity reading of dispersion ([4]; pass 1): 4602 cps | Viscosity reading of dispersion ([4]; pass 2): 4368 cps | Viscosity reading of dispersion ([4]; pass 3): 4212 cps | Viscosity reading of dispersion ([4]; pass 4): 4134 cps | Viscosity reading of dispersion ([4]; pass 5): 4290 cps | Viscosity reading of dispersion ([4]; pass 6): 4368 cps | Sunscreen solubility (Parsol 1789) [5, 12]: + | Sunscreen solubility (Parsol 1789) [5, 15]: + | Sunscreen solubility (Parsol 1789) [5, 13]: + | Sunscreen solubility (Parsol 1789) [5, 14]: + | Hagman reading (particle size) ([6]; pass 1): ≤ 34 μm | Hagman reading (particle size) ([6]; pass 2): ≤ 26 μm | Hagman reading (particle size) ([6]; pass 3): ≤ 20 μm | Hagman reading (particle size) ([6]; pass 4): ≤ 12 μm | Hagman reading (particle size) ([6]; pass 5): ≤ 8 μm | Hagman reading (particle size) ([6]; pass 6): ≤ 6 μm | Hagman reading (particle size) ([7]; pass 1): ≤ 53 μm | Hagman reading (particle size) ([7]; pass 2): ≤ 50 μm | Hagman reading (particle size) ([7]; pass 3): ≤ 46 μm | Hagman reading (particle size) ([7]; pass 4): ≤ 33 μm | Hagman reading (particle size) ([7]; pass 5): ≤ 30 μm | Hagman reading (particle size) ([7]; pass 6): ≤ 27 μm | GREASINESS/OILINESS [8]: 4 | OVERALL TACTILITY [8]: 4 | SPREADABILITY [8]: 3 | TACK [8]: 3 | viscosity of TiO2 dispersions (in words) [9]: much lower viscosity | Viscosity reading of dispersion ([9]; pass 1): 1794 cps | Viscosity reading of dispersion ([9]; pass 2): 1872 cps | Viscosity reading of dispersion ([9]; pass 3): 2028 cps | Viscosity reading of dispersion ([9]; pass 4): 2028 cps | Viscosity reading of dispersion ([9]; pass 5): 2028 cps | Viscosity reading of dispersion ([9]; pass 6): 1950 cps | Sunscreen solubility (Benzophenone-3) [10, 12]: + | Sunscreen solubility (Benzophenone-3) [10, 15]: + | Sunscreen solubility (Benzophenone-3) [10, 13]: + | Sunscreen solubility (Benzophenone-3) [10, 14]: +

CCCCCCC(CCCCCCCCCCC(=O)OCC(COC(=O)CCCCCCCCCCC(CCCCCC)OC(=O)c1ccccc1)OC(=O)CCCCCCCCCCC(CCCCCC)OC(=O)c1ccccc1)OC(=O)c1ccccc1 (stereo not drawn) [BHCO, Benzoic acid ester of glyceryl-trihydroxy stearate]
GREASINESS/OILINESS [8]: 4 | OVERALL TACTILITY [8]: 3 | SPREADABILITY [8]: 3 | TACK [8]: 3

CCCCCCC(CCCCCCCCCCC(=O)OCC(CC)CCCC)OC(=O)c1ccccc1 (stereo not drawn) [BOHS, benzoic acid ester of 2 ethyl hexyl 12-hydroxy stearate]
S.G. (specific gravity) ([1]; 25° C.): 0.928 | TITER ([1]; 25° C.): clear | VISCOSITY [1]: 110 cps | Hagman reading (particle size) ([3]; pass 1): ≤ 20 μm | Hagman reading (particle size) ([3]; pass 2): ≤ 14 μm | Hagman reading (particle size) ([3]; pass 3): ≤ 14 μm | Hagman reading (particle size) ([3]; pass 4): ≤ 10 μm | Hagman reading (particle size) ([3]; pass 5): ≤ 9 μm | Hagman reading (particle size) ([3]; pass 6): ≤ 8 μm | Sunscreen solubility (Parsol 1789) [5, 12]: + | Sunscreen solubility (Parsol 1789) [5, 15]: + | Sunscreen solubility (Parsol 1789) [5, 13]: + | Sunscreen solubility (Parsol 1789) [5, 14]: + | GREASINESS/OILINESS [8]: 4 | OVERALL TACTILITY [8]: 3 | SPREADABILITY [8]: 4 | TACK [8]: 3 | viscosity of TiO2 dispersions (in words) [9]: much lower viscosity | Viscosity reading of dispersion ([9]; pass 1): 1170 cps | Viscosity reading of dispersion ([9]; pass 2): 1170 cps | Viscosity reading of dispersion ([9]; pass 3): 1326 cps | Viscosity reading of dispersion ([9]; pass 4): 1326 cps | Viscosity reading of dispersion ([9]; pass 5): 1326 cps | Viscosity reading of dispersion ([9]; pass 6): 1326 cps | Sunscreen solubility (Benzophenone-3) [10, 12]: + | Sunscreen solubility (Benzophenone-3) [10, 15]: + | Sunscreen solubility (Benzophenone-3) [10, 13]: + | Sunscreen solubility (Benzophenone-3) [10, 14]: +

CCCCCCC(CCCCCCCCCCC(=O)OCC(COC(=O)CCCCCCCCCCC(CCCCCC)OC(=O)c1ccccc1)OC(=O)CCCCCCCCCCC(CCCCCC)OC(=O)c1ccccc1)OC(=O)c1ccccc1 (stereo not drawn) [Example 6, Castor Wax MP-80 Benzoate]
Color [11]: 3

CCCCCCC(CCCCCCCCCCC(=O)OCC(COC(=O)CCCCCCCCCCC(CCCCCC)OC(=O)c1ccccc1)OC(=O)CCCCCCCCCCC(CCCCCC)OC(=O)c1ccccc1)OC(=O)c1ccccc1 (stereo not drawn) [Example 7, Castor Wax MP-80 Benzoate]
Color [11]: 3

CCCCCCCCCCCCCCCCOC(=O)CCCCCCCC=CCC(CCCCCC)OC(=O)c1ccccc1 (stereo not drawn) [Example 8, Benzoate Ester of Cetyl Ricinoleate]
Color [11]: 4

CCCCCCCCCCCCCCCCOC(=O)CCCCCCCC=CCC(CCCCCC)OC(=O)c1ccccc1 (stereo not drawn) [Example 9, Benzoate Ester of Cetyl Ricinoleate]
Color [11]: 4

CCCCCCCCCCCCCCCCOC(=O)CCCCCCCC=CCC(CCCCCC)OC(=O)c1ccccc1 (stereo not drawn) [Example 10, Benzoate Ester of Cetyl Ricinoleate]
Color [11]: 4

CCCCCCCCCCCCCCCCOC(=O)CCCCCCCC=CCC(CCCCCC)OC(=O)c1ccccc1 (stereo not drawn) [Example 11, Benzoate Ester of Cetyl Ricinoleate]
Color [11]: 4

CCCCCCC(O)CCCCCCCCCCC(=O)OCC(CC)CCCC (stereo not drawn) [OHS, octyl hydroxystearate, reference compound]
Sunscreen solubility (Parsol 1789) [5, 12]: + | Sunscreen solubility (Parsol 1789) [5, 13]: + | Sunscreen solubility (Parsol 1789) [5, 14]: + | Sunscreen solubility (Benzophenone-3) [10, 12]: + | Sunscreen solubility (Benzophenone-3) [10, 13]: + | Sunscreen solubility (Benzophenone-3) [10, 14]: +
